Species: Rattus norvegicus
Assay: Open TG-GATES - Regimen: Single
Type: toxicity, organism-based, Sprague-Dawley
Set-up: regimen Single, gender Male, age 6 weeks
Details: in vivo, po, 50 mg/kg, route gavage, dose level Middle; for APTT / Bas / Eos / Fbg / Hb / Ht / Lym / MCH / MCHC / MCV / Mono / Neu / PT / Plat / RBC / Ret / WBC: tissue Blood; for KIDNEY_L / KIDNEY_R / KIDNEY_TOTAL: tissue Kidney; for LIVER: tissue Liver; for A/G / ALP / ALT / AST / BUN / CRE / Ca / Cl / DBIL / GLC / IP / K / LDH / Na / PL / RALB / TBIL / TC / TG / TP / gamma-GTP: tissue Plasma

## S=C=Nc1cccc2ccccc12 [1-NAPHTHYLISOTHIOCYANATE]
3 h
  TERMINAL_BW: 223.2 g
  APTT: 18.3 s
  Bas: 0.2%
  Eos: 1%
  Fbg: 237 mg/dL
  Hb: 13.7 g/dL
  Ht: 38.1%
  Lym: 76.6%
  MCH: 21.4 pg
  MCHC: 35.9%
  MCV: 59.7 fL
  Mono: 2.6%
  Neu: 18.8%
  PT: 11.6 s
  Plat: 118.2 x10_4/uL
  RBC: 639.2 x10_4/ul
  Ret: 8%
  WBC: 87.7 x10_2/uL
  KIDNEY_L: 0.9 g
  KIDNEY_R: 1 g
  KIDNEY_TOTAL: 1.9 g
  LIVER: 9.8 g
  A/G: 1.7
  ALP: 1022.2 IU/L
  ALT: 45 IU/L
  AST: 80.2 IU/L
  BUN: 9.6 mg/dL
  CRE: 0.4 mg/dL
  Ca: 10.8 mg/dL
  Cl: 102.8 meq/L
  DBIL: 0.1 mg/dL
  GLC: 240.6 mg/dL
  IP: 10.1 mg/dL
  K: 3.9 meq/L
  LDH: 179.8 IU/L
  Na: 141.4 meq/L
  PL: 154.2 mg/dL
  RALB: 3.6 g/dL
  TBIL: 0.1 mg/dL
  TC: 85.2 mg/dL
  TG: 77.4 mg/dL
  TP: 5.7 g/dL
  gamma-GTP: 0.8 IU/L
6 h
  TERMINAL_BW: 220.8 g
  APTT: 19.2 s
  Bas: 0%
  Eos: 0.4%
  Fbg: 239.8 mg/dL
  Hb: 13.9 g/dL
  Ht: 38.9%
  Lym: 79.2%
  MCH: 21.3 pg
  MCHC: 35.6%
  MCV: 59.8 fL
  Mono: 2.2%
  Neu: 17%
  PT: 12 s
  Plat: 126.8 x10_4/uL
  RBC: 651.4 x10_4/ul
  Ret: 7%
  WBC: 80.1 x10_2/uL
  KIDNEY_L: 1 g
  KIDNEY_R: 1 g
  KIDNEY_TOTAL: 1.9 g
  LIVER: 9.3 g
  A/G: 1.5
  ALP: 936.2 IU/L
  ALT: 36.6 IU/L
  AST: 72.8 IU/L
  BUN: 8.6 mg/dL
  CRE: 0.4 mg/dL
  Ca: 10.6 mg/dL
  Cl: 101.8 meq/L
  DBIL: 0.2 mg/dL
  GLC: 321.6 mg/dL
  IP: 10.2 mg/dL
  K: 4.2 meq/L
  LDH: 208 IU/L
  Na: 140.2 meq/L
  PL: 153.8 mg/dL
  RALB: 3.5 g/dL
  TBIL: 0.2 mg/dL
  TC: 84.6 mg/dL
  TG: 69.8 mg/dL
  TP: 5.8 g/dL
  gamma-GTP: 1 IU/L
9 h
  TERMINAL_BW: 214.5 g
  APTT: 17.9 s
  Bas: 0%
  Eos: 0.6%
  Fbg: 254 mg/dL
  Hb: 13.7 g/dL
  Ht: 38.2%
  Lym: 76.8%
  MCH: 22.3 pg
  MCHC: 35.9%
  MCV: 62 fL
  Mono: 2.2%
  Neu: 19.2%
  PT: 12 s
  Plat: 133.4 x10_4/uL
  RBC: 615.6 x10_4/ul
  Ret: 7.2%
  WBC: 80 x10_2/uL
  KIDNEY_L: 0.9 g
  KIDNEY_R: 0.9 g
  KIDNEY_TOTAL: 1.8 g
  LIVER: 8.8 g
  A/G: 1.6
  ALP: 826 IU/L
  ALT: 34.2 IU/L
  AST: 60 IU/L
  BUN: 10 mg/dL
  CRE: 0.4 mg/dL
  Ca: 10.7 mg/dL
  Cl: 102 meq/L
  DBIL: 0.2 mg/dL
  GLC: 321.8 mg/dL
  IP: 10 mg/dL
  K: 4.3 meq/L
  LDH: 150.4 IU/L
  Na: 141.2 meq/L
  PL: 147.8 mg/dL
  RALB: 3.5 g/dL
  TBIL: 0.2 mg/dL
  TC: 79.8 mg/dL
  TG: 72 mg/dL
  TP: 5.8 g/dL
  gamma-GTP: 1.2 IU/L
24 h
  TERMINAL_BW: 214.8 g
  APTT: 19.7 s
  Bas: 0.6%
  Eos: 0.4%
  Fbg: 357 mg/dL
  Hb: 14.3 g/dL
  Ht: 37.9%
  Lym: 48%
  MCH: 22.4 pg
  MCHC: 37.7%
  MCV: 59.2 fL
  Mono: 4.6%
  Neu: 44.6%
  PT: 12.2 s
  Plat: 131.9 x10_4/uL
  RBC: 639.6 x10_4/ul
  Ret: 6%
  WBC: 118.9 x10_2/uL
  KIDNEY_L: 1 g
  KIDNEY_R: 1 g
  KIDNEY_TOTAL: 2 g
  LIVER: 9.2 g
  A/G: 1.3
  ALP: 1257.2 IU/L
  ALT: 153.8 IU/L
  AST: 366.6 IU/L
  BUN: 10.4 mg/dL
  CRE: 0.4 mg/dL
  Ca: 10.4 mg/dL
  Cl: 98 meq/L
  DBIL: 0.9 mg/dL
  GLC: 177.6 mg/dL
  IP: 8.6 mg/dL
  K: 3.5 meq/L
  LDH: 617.6 IU/L
  Na: 141.4 meq/L
  PL: 218.2 mg/dL
  RALB: 3.2 g/dL
  TBIL: 1.1 mg/dL
  TC: 107 mg/dL
  TG: 64.8 mg/dL
  TP: 5.7 g/dL
  gamma-GTP: 6.2 IU/L
